{"source": "BindingDB's records for doi:10.1074/jbc.M413155200", "about": "(Vertex Pharmaceuticals, 2005)", "target": "Serine/threonine-protein kinase pim-1 (Homo sapiens, UniProt P11309)", "sequence (P11309 whole entry)": "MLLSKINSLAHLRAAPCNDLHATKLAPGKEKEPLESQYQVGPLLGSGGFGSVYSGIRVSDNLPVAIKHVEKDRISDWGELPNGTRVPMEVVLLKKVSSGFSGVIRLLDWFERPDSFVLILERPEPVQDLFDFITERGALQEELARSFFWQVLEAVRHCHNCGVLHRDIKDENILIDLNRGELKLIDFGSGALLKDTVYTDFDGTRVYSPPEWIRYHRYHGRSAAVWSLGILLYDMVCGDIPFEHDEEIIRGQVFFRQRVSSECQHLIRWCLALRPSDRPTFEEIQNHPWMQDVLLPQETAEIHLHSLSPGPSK", "experiment": "Kinase Assay", "conditions": "pH 7.6; 30 °C"}
{"smiles": "COC(=O)[C@@]1(O)C[C@H]2O[C@]1(C)n1c3ccccc3c3c4c(c5c6ccccc6n2c5c31)C(=O)NC4", "values": [{"measurement": "IC50", "value": 150, "unit": "nM"}]}
